Source: paper PMC6748986, “Potent modulation of the CepR quorum sensing receptor and virulence in a Burkholderia cepacia complex member using non-native lactone ligands” (Scientific Reports, 2019)
Positions count from the first letter of the chain named. pEC50, pIC50: −log10 of the molar value.

Experiments:
CepR [1] = biological target: T1, CepR (Burkholderia cenocepacia, UniProt B4EMD0); assay: CepR agonism in E. coli β-galactosidase reporter (Ec-reporter) JLD271 [pJN105-cepR + pSC11-cepI]; assay type: cell-based, B. cenocepacia; details: for Maximal Activation (%): activity for 100 μM C8-AHL set to 100%, error ±10%; for Act%: screening conc. 100 μM
T1 sequence (B4EMD0 1-239): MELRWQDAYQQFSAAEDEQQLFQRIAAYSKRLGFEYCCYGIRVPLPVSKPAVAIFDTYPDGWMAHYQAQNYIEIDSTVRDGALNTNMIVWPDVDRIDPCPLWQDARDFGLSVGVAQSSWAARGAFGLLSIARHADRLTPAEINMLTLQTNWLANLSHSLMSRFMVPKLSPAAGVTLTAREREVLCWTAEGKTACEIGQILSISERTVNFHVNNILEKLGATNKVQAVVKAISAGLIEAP
Description: (§1) We began our study by screening the AHL library for CepR modulators using an E. coli-based two plasmid reporter system (Ec-reporter)[38]–[40]. Certain members of the Bcc harbor additional QS systems that are either AHL-based (e.g., BviI/BviR in B. vietnamiensis)[41] or diffusible signal factor (DSF)-based (B. cenocepacia)[42], and at least one member of the Bcc has multiple receptors that respond to C8-AHL (e.g., CepR and CepR2 in B. cenocepacia)[43]. Thus, we reasoned that using a CepR reporter in a heterologous background could simplify our initial analyses. We modified our previously reported E. coli-based two plasmid β-galactosidase reporter system to develop a CepR Ec-reporter (see Methods). The first plasmid, pJN105-cepR, contains CepR from B. cenocepacia under the control of the L-arabinose inducible pBAD promoter. A second plasmid contains a transcriptional fusion of lacZ to the cepI promoter region. The two plasmids were co-transformed into a QS mutant E. coli strain (JLD271 ∆sdiA) that lacks its LuxR-type receptor, SdiA. Using this reporter system, if an exogenously -added compound is able to interact with CepR, this will affect the protein’s interaction with the cepI promoter region and alter β-galactosidase production. Enzyme production, and thereby CepR activity, is then measurable via the degradation of a colorimetric substrate for β-galactosidase. Using this new Ec-reporter, we observed robust activity of CepR in response to its native ligand C8-AHL, with an EC50 of 5 nM (Table 1).
We used the CepR Ec-reporter to perform a primary agonism screen at a single compound concentration (100 μM, or its solubility limit, indicated in Table S1). Thirty-one compounds displaying ≥70% agonistic activity in CepR (relative to C8-AHL) were identified and subjected to dose-response analyses using the Ec-reporter (Table I; see Table S2 for complete screening data and Fig. S3 for dose-response curves).
(§2) E. coli β-galactosidase reporter assays (derived from ref.[63]) and reagents used to obtain primary screening and dose-response data were performed as previously described[22],[60],[64], with the following modifications: E. coli JLD271 (∆sdiA) was co-transformed iteratively with pSC11-cepI and pJN105-cepR via electroporation. A single colony was used to start overnight cultures in LB medium + ampicillin (100 μg/mL) + gentamicin (15 μg/mL). A 1:10 dilution of overnight culture was grown in fresh medium to OD600 = 0.25. A sterile solution of L-arabinose in water (27 mM final concentration) was added to induce protein expression, after which cells were plated in 96-well plates containing varying concentrations of compound (200 μL total volume).
(§3) Cells were grown for 4 h, OD600 was read, 50 μL aliquots from each well were permeabilized in 200 μL Z Buffer, and then 150 μL of this mixture used to measure the cleavage of 25 μL of 4 mg/mL CPRG in phosphate buffered saline (PBS) at 37 °C until positive control wells developed a deep red color (~30 min). For all agonism assays, synthetic compound (100 μM) was screened alongside and compared to the native ligand, C8-AHL (100 μM). For all primary and dose-response antagonism assays, the concentration of native ligand utilized was 10 nM (approximately equal to twice its EC50 value). […] At least 3 separate trials were performed using unique cultures on separate days.

CepR [2] = biological target: T1, CepR; assay: CepR antagonism in E. coli β-galactosidase reporter (Ec-reporter), competition against C8-AHL; assay type: cell-based, B. cenocepacia; details: against 10 nM C8-AHL; for Inh% (100-Act%): Table S3, Ec-reporter, screening conc. 100 μM
Description: as §1
To identify antagonists of CepR, we screened the AHL library (at 100 μM) in competition against the native ligand C8-AHL (at approximately twice its EC50 value, 0.01 μM) in the Ec-reporter. […] The active compounds were subjected to dose-response analyses in the Ec-reporter to obtain IC50 values and assess their relative potencies (Table 2; see Table S3 for complete screening data and Fig. S3 for dose-response curves). One general trend that we noted at the outset was the majority of the antagonists had acyl tails of similar or shorter overall length than CepR’s native ligand, C8-AHL. From this set, the strongest antagonists could be divided into two classes: (i) “short alkyl tail” AHLs or analogs thereof, and (ii) phenylacetanoyl HLs (PHLs). The discovery that the latter compounds were CepR antagonists was perhaps not surprising, as we have found substituted PHLs to strongly antagonize the majority of the LuxR-type receptors studied in our laboratory to date[22],[24],[29],[45],[46].
as §2, §3

CepR [3] = biological target: T2, CepR (Burkholderia multivorans, UniProt Q93PF7); assay: CepR agonism in B. multivorans cepI::lacZ reporter (Bm-reporter); assay type: cell-based; details: for pEC50 / Maximal Activation (%): Bm-reporter; for pEC50: agonism dose-response, read-out: EC50; for Maximal Activation (%): activity for 100 μM C8-AHL set to 100%, error ±10%; for Act%: Table S4, Bm-reporter, screening conc. 100 μM
T2 sequence (Q93PF7 1-239): T1 sequence (B4EMD0 1-239) with W5R, A51S, Q69H, N84S, R95Q, D97A
Description: We next sought to assess if the CepR modulators identified in the Ec-reporter maintained their activities in a member of the Bcc. For these studies, we generated a B. multivorans cepI::lacZ reporter organism (Bm-reporter) using standard allelic exchange methods (see Methods). Along with B. cenocepacia, B. multivorans is one of the most commonly isolated Bcc members[6],[44]. We note that small molecules must contend with a different cellular environment in the native organism relative to E. coli[48]; however, as both CepR and the cepI promoter are highly conserved among Bcc species (Fig. S3), we reasoned that the majority of compounds identified in the Ec-reporter (containing B. cenocepacia versions of the cepI promoter and the cepR gene) would maintain their relative activity profiles in CepR in B. multivorans. […] Similar to the Ec-reporter, CepR binding to the cepI promoter then induces β-galactosidase production, allowing for the quantitation of CepR activity. Using the Bm-reporter organism, we observed robust activity for CepR in response to C8-AHL (EC50 = 0.7 nM, Table 3).
The B. multivorans cepI::lacZ strain was used to obtain dose-response data for CepR in response to synthetic AHLs. Overnight cultures of B. multivorans cepI::lacZ were grown in LB medium at 37 °C with shaking (225 rpm). Aliquots (200 μL) of a 1:10 dilution of this overnight culture were plated into 96-well plates containing varying concentrations of compound, and then grown for 4 h at 37 °C with shaking (225 rpm). β-galactosidase production was measured as described above for E. coli, with the following changes: permeabilized cells were incubated at 25 °C with substrate CPRG for ~10 min until positive control wells developed a deep red color. For agonism assays, synthetic compound was screened alongside and compared to the native ligand, C8-AHL (100 μM). For antagonism assays, the concentration of native ligand utilized was 5 nM (approximately equal to twice its EC50 value).

[4] = Ec-reporter, agonism dose-response

Row | Compound | Act% (CepR [1]; Table S2, Ec-reporter) [%] | Inh% (100-Act%) (CepR [2]) [%] | further results
1 | CCCCCC(=O)CC(=O)N[C@H]1CCOC1=O [3’O-C8-AHL, reference compound] | 86 | 3.0 | pEC50 (CepR [1]; [4]): 5.92; Maximal Activation (%) (CepR [1]; Ec-reporter): 86%; pIC50 (CepR [2]; Ec-reporter): 4.80; Maximal Inhibition (%) (CepR [2]; Ec-reporter): 71%; pEC50 (CepR [3]): ≤ 5.46; Maximal Activation (%) (CepR [3]): 72%; Act% (CepR [3]): 72%
2 | CCCCCCCCCC(=O)CC(=O)N[C@H]1CCOC1=O [3’O-C12-AHL, reference compound] | 98 | -40 | Act% (CepR [3]): 80%
3 | O=C(CCCOc1ccc(Cl)cc1)NC1CCOC1=O (stereo not drawn) [CL, reference compound] | 110 | -20 | pEC50 (CepR [1]; Table S2, Ec-reporter): 7.92; pEC50 (CepR [3]): 6.03; Maximal Activation (%) (CepR [3]): 80%; Act% (CepR [3]): 80%
4 | O=C(CCc1ccc(Br)cc1)N[C@H]1CCOC1=O [Compound B7] | 97 | -50 | pEC50 (CepR [1]; [4]): 9.54; EC50 (nM) (CepR [1]; [4]): sub-nanomolar; Maximal Activation (%) (CepR [1]; Ec-reporter): 97%; pEC50 (CepR [3]): 9.62; Maximal Activation (%) (CepR [3]): 82%; Act% (CepR [3]): 82%
5 | O=C(CCC1CCCCC1)N[C@H]1CCOC1=O [Compound B11] | 87 | -20 | pEC50 (CepR [1]; [4]): 6.89; Maximal Activation (%) (CepR [1]; Ec-reporter): 87%; Act% (CepR [3]): 51%
6 | O=C(N[C@H]1CCOC1=O)c1ccc(Cl)cc1 [Compound Q4] | 49 | -20 | 
7 | O=C(N[C@H]1CCOC1=O)c1ccc(I)cc1 [Compound Q5] | 78 | 0.0 | 
8 | COc1ccc(C(=O)N[C@H]2CCOC2=O)cc1 [Compound Q6] | 25 | -20 | 
9 | O=C(N[C@H]1CCOC1=O)c1ccc([N+](=O)[O-])cc1 [Compound Q7] | 10 | 28 | 
10 | Cc1ccc(C(=O)N[C@H]2CCOC2=O)cc1 [Compound Q8] | 19 | -20 | 
11 | CCCCCCCCOc1ccc(C(=O)N[C@H]2CCOC2=O)cc1 [Compound Q9] | 62 | -20 | 
12 | O=C(N[C@H]1CCOC1=O)c1ccc(Oc2ccc(Br)cc2)cc1 [Compound Q10] | 64 | -40 | 
13 | O=C(N[C@H]1CCOC1=O)c1ccc2c(c1)OCO2 [Compound Q11] | 6.9 | 5.0 | 
14 | O=C(N[C@H]1CCOC1=O)c1ccc(-c2ccccc2)cc1 [Compound Q12] | 111 | -70 | 
15 | CC(C)(C)OC(=O)c1ccc(C(=O)N[C@H]2CCOC2=O)cc1 [Compound Q13] | 6.8 | 11 | 
16 | CCOc1ccc(C(=O)N[C@H]2CCOC2=O)cc1 [Compound R1] | 99 | -20 | pEC50 (CepR [1]; Table S2, Ec-reporter): 6.74
17 | CCCCCOc1ccc(C(=O)N[C@H]2CCOC2=O)cc1 [Compound R5] | 95 | -10 | 
18 | O=C(CCCC1CCCCC1)N[C@H]1CCOC1=O [Compound S6] | 90 | -10 | 
19 | O=C(CC1CCCCC1)N[C@H]1CCOC1=O [Compound S7] | 7.6 | 20 | 
20 | CCCCCCCCCC(=O)CC(=O)Nc1ccccc1 [Compound V-06-018, reference compound] |  |  | Act% (CepR [1]; Table S2, Ec-reporter, listed as V-06-01 8): 2.4%; Inh% (100-Act%) (CepR [2]; listed as V-06-01 8): -20%
21 | O=C(Cc1ccccc1)N[C@H]1CCOC1=O [Control 5, reference compound] |  | 11 | Act% (CepR [1]; Table S2, Ec-reporter, listed as Co n tro l 5): 9.8%
22 | O=C(CCCc1ccccc1)N[C@H]1CCOC1=O [Control 6, reference compound] | 80 | 3.0 | 
23 | CCCCCCCCCC(=O)CC(=O)Nc1cccc(OC)c1 [Control 13, reference compound] | 2.0 | 13 | 
24 | CCCCCCCCCC(=O)CC(=O)NC1CCCCC1=O (stereo not drawn) [Control 15, reference compound] | 5.2 | 29 | 
25 | CCCCCC(=O)CC(=O)N[C@@H]1CCOC1=O [D-3’O-C8-AHL] | 85 | -40 | CepR agonism in words (CepR [1]; Ec-reporter): inactive; pEC50 (CepR [1]; [4]): ≤ 4.57; Maximal Activation (%) (CepR [1]; Ec-reporter): 85%
26 | CCCCCCCCCCCCn1nnc(CC(=O)O)n1 [PD-12, reference compound] | -7.6 | -40 | 
27 | O=C(NCc1cc(Br)cc(Br)c1OC(=O)c1ccccc1[N+](=O)[O-])c1ccccc1Cl [TP-1P, reference compound] | 54 | 0.0 | 
28 | meta-bromo-thiolactone [mBTL, reference compound] | 0.4 | -60 | 
